{"source": "patent US9937259B2", "about": "“Abiraterone derivatives and non-covalent complexes with albumin” (Zhuhai Beihai Biotech Co., Ltd., priority 2014, dated 2018)", "key": {"[1]": {"assay": "Persistence in plasma (incubation at 37° C., LC-MS/MS)", "type": "in vitro ADME, human", "settings": "for Peak Area Ratio (Analyte/IS): Human Plasma", "experimental": "Test compounds and control (procaine) were incubated at a concentration of 10 μM with human plasma. […]\nAfter quenching by acetonitrile, the plates were capped, vortexed, and centrifuged at 3000 rpm for 10 minutes. The supernatant was injected into LC-MS/MS."}, "[2]": {"assay": "Persistence in plasma study, PBS buffer incubation", "type": "physicochemical", "settings": "for Peak Area Ratio (Analyte/IS): PBS Buffer (pH 7.4), 37° C.; for % Remaining after 24-hr Incubation at 37° C.: PBS buffer"}, "[3]": {"settings": "depending on fat content of the meal; cited from earlier work"}, "[4]": {"settings": "oral drug, poor absorption; cited from earlier work"}, "[5]": {"settings": "product insert; cited from earlier work"}, "CYP3A4 liver enzyme": {"molecular_target": "CYP3A4 liver enzyme (Homo sapiens, UniProt P08684)", "sequence (P08684 whole entry)": "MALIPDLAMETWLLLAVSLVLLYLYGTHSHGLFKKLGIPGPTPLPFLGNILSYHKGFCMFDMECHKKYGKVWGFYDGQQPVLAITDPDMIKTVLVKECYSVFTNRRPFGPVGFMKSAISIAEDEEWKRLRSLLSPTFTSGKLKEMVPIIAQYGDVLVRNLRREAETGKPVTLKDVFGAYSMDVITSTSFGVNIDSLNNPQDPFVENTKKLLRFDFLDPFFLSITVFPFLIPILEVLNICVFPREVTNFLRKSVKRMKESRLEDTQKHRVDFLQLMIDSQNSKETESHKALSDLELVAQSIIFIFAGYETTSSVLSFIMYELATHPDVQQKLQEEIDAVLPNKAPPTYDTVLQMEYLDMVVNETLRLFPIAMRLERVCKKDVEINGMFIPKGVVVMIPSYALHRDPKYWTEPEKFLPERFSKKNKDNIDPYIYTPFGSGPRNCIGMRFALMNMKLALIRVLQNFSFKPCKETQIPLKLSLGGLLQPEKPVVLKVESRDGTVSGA", "settings": "cited from earlier work"}}, "data": [{"smiles": "CCN(CC)CCOC(=O)c1ccc(N)cc1", "note": "[Procaine]", "values": [{"measurement": "Peak Area Ratio (Analyte/IS)", "setting": "[1]; 0 hr, Replicate 1", "result": 0.443}, {"measurement": "Peak Area Ratio (Analyte/IS)", "setting": "[1]; 0 hr, Replicate 2", "result": 0.444}, {"measurement": "Peak Area Ratio (Analyte/IS)", "setting": "[1]; 24 hr, 37° C., Replicate 1", "result": 0.0}, {"measurement": "Peak Area Ratio (Analyte/IS)", "setting": "[1]; 24 hr, 37° C., Replicate 2", "result": 0.0}, {"measurement": "% Remaining after 24-hr Incubation at 37° C.", "setting": "[1]; human, plasma, 24 h, 10 μM", "result": 0.0, "unit": "%"}, {"measurement": "Peak Area Ratio (Analyte/IS)", "setting": "[2]; Replicate 1", "result": 0.0916}, {"measurement": "Peak Area Ratio (Analyte/IS)", "setting": "[2]; Replicate 2", "result": 0.357}, {"measurement": "% Remaining after 24-hr Incubation at 37° C.", "setting": "[2]; Average", "result": 51, "unit": "%"}, {"measurement": "% Remaining after 24-hr Incubation at 37° C.", "setting": "[2]; Replicate 1", "result": 20.65, "unit": "%"}, {"measurement": "% Remaining after 24-hr Incubation at 37° C.", "setting": "[2]; Replicate 2", "result": 80.5, "unit": "%"}]}, {"smiles": "CC(=O)O[C@H]1CC[C@@]2(C)C(=CC[C@@H]3[C@@H]2CC[C@]2(C)C(c4cccnc4)=CC[C@@H]32)C1", "note": "[abiraterone acetate]", "values": [{"measurement": "Food-effect", "setting": "[3]", "result": "five- to ten-fold"}, {"measurement": "Administered drug excreted", "setting": "[4]", "result": 77, "unit": "%"}, {"measurement": "Solubility in water", "setting": "[5]", "result": "practically insoluble"}, {"measurement": "Substrate of CYP3A4", "setting": "CYP3A4 liver enzyme", "result": "substrate"}]}]}
